{"source": "paper PMC9532951", "about": "“Identification and characterization of a novel SNAT2 (SLC38A2) inhibitor reveals synergy with glucose transport inhibition in cancer cells” (Frontiers in Pharmacology, 2022)", "target": "T1, SNAT2 (Homo sapiens, UniProt Q96QD8)", "T1 sequence (Q96QD8 1-506)": "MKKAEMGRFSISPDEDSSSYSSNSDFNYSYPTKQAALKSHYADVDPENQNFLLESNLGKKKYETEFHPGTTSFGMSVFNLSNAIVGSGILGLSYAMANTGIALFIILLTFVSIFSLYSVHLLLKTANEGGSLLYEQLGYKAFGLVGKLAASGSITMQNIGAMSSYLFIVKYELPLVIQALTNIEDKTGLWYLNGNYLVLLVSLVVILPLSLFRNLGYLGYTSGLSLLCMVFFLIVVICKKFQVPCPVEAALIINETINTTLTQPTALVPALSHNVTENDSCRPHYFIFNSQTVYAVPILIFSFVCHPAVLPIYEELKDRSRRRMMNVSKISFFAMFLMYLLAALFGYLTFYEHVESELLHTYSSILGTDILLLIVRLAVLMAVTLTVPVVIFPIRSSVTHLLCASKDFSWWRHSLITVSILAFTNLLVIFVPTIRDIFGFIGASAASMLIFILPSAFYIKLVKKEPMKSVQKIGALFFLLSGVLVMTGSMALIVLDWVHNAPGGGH", "test": "Radiolabelled proline uptake in amino acid depleted SKOV3 cells", "type": "cell-based", "parameters": "SKOV3 cells pre-incubated in starvation medium for 24 h to induce SNAT2 expression; endogenous in cells; host or cells: SKOV3 ovarian cancer cells, amino acid depleted for 15 or 24 h", "description": "Functional characterisation of plasma membrane transporters in human cancer cells was determined at 37°C using an array of radiolabelled amino acid substrates. Modified Hanks HEPES-buffered salts solution (mHBSS; 137 mM NaCl; 5.4 mM KCl; 2.7 mM K2HPO4; 1 mM CaCl2; 0.5 mM MgCl2; 0.44 mM KH2PO4; 0.4 mM MgSO4; 5 mM D-glucose; 5 mM HEPES; pH 7.4) was used to wash and incubate cells where sodium dependent transport was measured, while N-methyl-D-glucamine (NMDG) and potassium salts substituted sodium in NMDG mHBSS to measure sodium independent uptake. For the assay, cells were seeded in 35 mm dishes and, once confluent, were washed thrice with warm mHBSS solution and incubated with mHBSS containing an 100 µM amino acid at a final specific activity of ≥2000 cpm/nmol (U-[^14C]amino acids were from PerkinElmer). After 6 min, cells were washed thrice with ice-cold mHBSS, lysed with 500 µl of 0.1 M HCl, detached with a cell scraper and triturated. A 400 µl aliquot was used for scintillation counting, while the remainder was saved for protein mass quantification by Bradford assay. Transport rates were normalised to the protein content of the culture dish.\nIC50 were calculated using equation y=ymax(1−x/x+IC50)"}
{"smiles": "Cc1ccc(S(=O)(=O)N(C)c2ccsc2C(=O)NCc2ccccc2C(F)(F)F)cc1", "note": "[Compound 57_E, 3-(N-methyl (4-methylphenyl)sulfonamido)-N-(2-trifluoromethylbenzyl)thiophene-2-carboxamide]", "values": [{"measurement": "SNAT2 transport rate of proline", "setting": "Concentration 0.01 uM, betaine resistant transport subtracted", "value": 5.421, "unit": "nmol / mg protein x 6 min"}, {"measurement": "SNAT2 transport rate of proline", "setting": "Concentration 0.03 uM", "value": 5.227, "unit": "nmol / mg protein x 6 min"}, {"measurement": "SNAT2 transport rate of proline", "setting": "Concentration 0.1 uM", "value": 4.344, "unit": "nmol / mg protein x 6 min"}, {"measurement": "SNAT2 transport rate of proline", "setting": "Concentration 0.3 uM", "value": 3.331, "unit": "nmol / mg protein x 6 min"}, {"measurement": "SNAT2 transport rate of proline", "setting": "Concentration 1 uM", "value": 2.267, "unit": "nmol / mg protein x 6 min"}, {"measurement": "SNAT2 transport rate of proline", "setting": "Concentration 3 uM", "value": -0.2231, "unit": "nmol / mg protein x 6 min"}, {"measurement": "SNAT2 transport rate of proline", "setting": "Concentration 10 uM", "value": -0.6681, "unit": "nmol / mg protein x 6 min"}, {"measurement": "IC50", "setting": "betaine-sensitive fraction of proline uptake, SKOV3 AA- (15h)", "value": "0.8 ± 0.4", "unit": "µM"}, {"measurement": "IC50", "setting": "in two different assays", "value": "0.8 to 3", "unit": "µM"}]}
